Measurements published in article PMC10674565 (Pharmaceuticals, 2023).

Key:
ABCB1 [1] = biological target: T1, ABCB1 (Homo sapiens, UniProt P08183); assay: Effect on ABCB1-mediated transport of fexofenadine through the Caco-2 cells monolayer
Experimental: Transport experiments were carried out in Transwell® systems (12 mm Transwell® with 0.4 µm Pore Polycarbonate Membrane Insert, Sterile, «Corning»). The Transwell® system consists of two chambers, apical and basolateral. […] The medium was changed every 2–3 days. The apical and basolateral chambers represent the luminal and blood/mesenteric lymph sides of the gastrointestinal tract, respectively.
The transepithelial electrical resistance (TEER) across the cell monolayers was monitored using a Millicell-ERS (electrical resistance system) to assess cell monolayer integrity. For transport studies, only monolayers with a TEER > 500 Ω cm^2 were used.
To study the roles of different parts of the EMHPS molecule for its action on ABCB1, experiments with succinic acid were also carried out.
Prior to the transport experiments, the culture media was aspirated, and the monolayers were washed twice with transport medium and preincubated with EMHPS, succinic acid, or verapamil for 30 min.
The data are presented as the mean ± SD from three monolayers.
The resulting sample of the transport medium (50 μL) was diluted in 150 μL of the mobile phase, and 100 μL of the resulting solution was injected into the chromatograph. A Phenomenex Synergi 4u Polar-RP 80A (250 × 4.6) chromatographic column was used for analysis. The separation temperature was 35 °C; the flow rate was 1 mL/min. Composition of the mobile phase: acetonitrile (128 mL), deionized water (267.4 mL), acetic acid (6.33 mL), triethylamine to pH = 6.7. […] Detection was carried out at a wavelength of 220 nm.
Half maximal inhibitory concentration (IC50) values were determined through nonlinear regression based on the three-parameter logistic function.

[2] = set-up: method as in earlier work; settings: blood plasma; cited from earlier work
chronic brain ischemia = test system: chronic brain ischemia; set-up: method as in PMID 34932280; settings: 318 patients with chronic brain ischemia; cited from earlier work
ABCB1 [3] = biological target: T1, ABCB1; assay: EMHPS transport through the Caco-2 cells monolayer (ABCB1 substrate test); type: in vitro ADME; set-up: Caco-2 cells were used to test the effect of EMHPS on the expression and activity of ABCB1; endogenous in cells; host or cells: Caco-2
Experimental: The medium was changed every 2–3 days.
The medium in chambers was removed and the cell monolayers were washed twice in warm (37 °C) transport medium (Hanks‚ balanced salt solution containing 10 mM HEPES and 1% dimethylsulfoxide (DMSO)). […] Chamber–recipient was filled with transport medium without EMHPS. At 60, 120, and 180 min, 100 μL samples were taken from the recipient chamber and the drug concentration was analyzed. EMHPS transport was assessed in the absorptive (apical to basolateral, a-b) and secretory (b-a) directions.
The apparent permeability (Papp) of EMHPS through Caco-2 monolayers was calculated using Equation (1). (1) Papp=dQ/dt×1/A×C0
A, membrane surface area (1.12 cm^2); C0, EMHPS concentration at t = 0 µM; and dQ/dt, amount of EMHPS transported within a given time period µM/s.
The ratio of Papp (b-a) and Papp (a-b), known as the efflux ratio (ER), was calculated in accordance with the following Equation (2):(2) ER=Papp b-a/Papp a-b
The ER was used as a marker for permeability through Caco-2 cell monolayers.
EMHPS concentrations in the transport medium (transport experiments with Caco-2 cells) were analyzed using HPLC-UV (HPLC chromatograph Stayer) with UV detection at a wavelength of 296 nm. The sample (50 µL) was diluted in 150 µL of the mobile phase, and 100 µL of the resulting solution was injected into the chromatograph. In the analysis, a Beckman Coulter 4.6 × 150 mm, 5 μm chromatographic column was used.
The separation temperature was 35 °C. The flow rate was 0.8 mL/min. Mobile phase composition: acetonitrile and water in a 20:80 v/v ratio with the addition of acetic acid to pH 3.25. The retention time of EMHPS under these conditions was 5.5 min.

[4] = human, Caco-2 cell monolayer on Transwell inserts, probe fexofenadine 150 µmol/L
[5] = human, EMHPS 10 µM, Caco-2 monolayer, M ± SD
[6] = human, EMHPS 100 µM, Caco-2 monolayer, M ± SD
[7] = human, EMHPS 250 µM, Caco-2 monolayer, M ± SD

T1 sequence (P08183 whole entry): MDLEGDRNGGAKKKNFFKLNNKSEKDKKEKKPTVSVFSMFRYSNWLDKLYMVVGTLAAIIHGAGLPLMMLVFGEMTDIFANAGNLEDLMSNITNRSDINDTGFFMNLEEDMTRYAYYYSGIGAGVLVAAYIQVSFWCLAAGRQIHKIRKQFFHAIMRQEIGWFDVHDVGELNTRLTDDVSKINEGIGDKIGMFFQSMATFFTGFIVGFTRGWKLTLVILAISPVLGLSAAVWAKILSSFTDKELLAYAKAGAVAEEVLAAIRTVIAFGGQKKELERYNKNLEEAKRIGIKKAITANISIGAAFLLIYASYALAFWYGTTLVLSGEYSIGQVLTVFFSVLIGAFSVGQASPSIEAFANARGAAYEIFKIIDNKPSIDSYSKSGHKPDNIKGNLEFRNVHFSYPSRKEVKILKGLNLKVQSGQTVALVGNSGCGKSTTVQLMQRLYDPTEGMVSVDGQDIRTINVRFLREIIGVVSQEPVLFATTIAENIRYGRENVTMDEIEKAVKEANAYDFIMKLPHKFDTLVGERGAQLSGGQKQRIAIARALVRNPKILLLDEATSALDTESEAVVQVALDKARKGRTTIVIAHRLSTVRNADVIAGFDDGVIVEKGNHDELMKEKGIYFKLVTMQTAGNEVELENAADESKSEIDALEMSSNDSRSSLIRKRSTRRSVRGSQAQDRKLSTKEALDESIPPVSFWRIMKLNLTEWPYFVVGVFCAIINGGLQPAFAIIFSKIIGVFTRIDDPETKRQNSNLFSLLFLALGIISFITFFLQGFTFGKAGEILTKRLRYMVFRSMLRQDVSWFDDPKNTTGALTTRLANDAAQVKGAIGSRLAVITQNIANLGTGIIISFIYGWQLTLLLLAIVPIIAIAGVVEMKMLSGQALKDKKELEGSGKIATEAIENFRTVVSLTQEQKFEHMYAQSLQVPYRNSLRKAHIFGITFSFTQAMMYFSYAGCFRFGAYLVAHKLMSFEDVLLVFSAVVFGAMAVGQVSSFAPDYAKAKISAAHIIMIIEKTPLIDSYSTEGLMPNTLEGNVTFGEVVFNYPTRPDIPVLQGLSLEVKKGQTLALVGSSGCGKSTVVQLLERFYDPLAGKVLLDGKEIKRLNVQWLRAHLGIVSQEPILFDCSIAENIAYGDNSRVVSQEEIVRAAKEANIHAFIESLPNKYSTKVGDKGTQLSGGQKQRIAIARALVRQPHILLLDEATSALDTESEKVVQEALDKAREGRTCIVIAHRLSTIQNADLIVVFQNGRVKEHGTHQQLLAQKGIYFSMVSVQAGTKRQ

For CCc1nc(C)ccc1O.O=C(O)CCC(=O)O [EMHPS, 2-Ethyl-6-methyl-3-hydroxypyridine succinate], which IC50 (ABCB1 [1]) is on record?
The IC50 was 92 ± 24.3 µM.

And the “decrease of basal-to-apical fexofenadine transport” value (ABCB1 [1]; 200 µM, vs control, Caco-2 monolayer)?
Its value is 52.5%.

And the inhibition at 50 µM (ABCB1 [1]; [4])?
The inhibition at 50 µM was 50.2%.

What about the inhibition at 100 µM (ABCB1 [1]; [4]) of the same compound?
The inhibition at 100 µM was 72.9%.

What about the inhibition at 200 µM (ABCB1 [1]; [4]) of the same compound?
The inhibition at 200 µM was 90.6%.

What about the Cmax [2] of the same compound?
The Cmax was 390 nM.

What about the “benefit over the placebo in basic neurological tests” value (chronic brain ischemia) of the same compound?
The value was “statistically significant benefit”.

And the “substrate of ABCB1” value (ABCB1 [3]; Caco-2 monolayer, 10, 100, and 250 µM)?
The value was “not a substrate of ABCB1”.

And the Papp A→B at 180 min, 10 µM (ABCB1 [3]; [5])?
Its Papp A→B at 180 min, 10 µM is 7.66 ×10⁻⁶ cm/s.

What about the Papp B→A at 180 min, 10 µM (ABCB1 [3]; [5]) of the same compound?
Its Papp B→A at 180 min, 10 µM is 7.56 ×10⁻⁶ cm/s.

What about the efflux ratio at 180 min, 10 µM (ABCB1 [3]; human, EMHPS 10 µM, Caco-2 monolayer, M ± SD, read-out: ER (Papp b-a/Papp a-b)) of the same compound?
Its efflux ratio at 180 min, 10 µM is 0.99 ± 0.323.

And the Papp A→B at 180 min, 100 µM (ABCB1 [3]; [6])?
Its Papp A→B at 180 min, 100 µM is 7.05 ×10⁻⁶ cm/s.

And the Papp B→A at 180 min, 100 µM (ABCB1 [3]; [6])?
The Papp B→A at 180 min, 100 µM was 6.63 ×10⁻⁶ cm/s.

What about the efflux ratio at 180 min, 100 µM (ABCB1 [3]; human, EMHPS 100 µM, Caco-2 monolayer, M ± SD, read-out: ER (Papp b-a/Papp a-b)) of the same compound?
The efflux ratio at 180 min, 100 µM was 0.94 ± 0.039.

And the Papp A→B at 180 min, 250 µM (ABCB1 [3]; [7])?
Its Papp A→B at 180 min, 250 µM is 22.3 ×10⁻⁶ cm/s.

And the Papp B→A at 180 min, 250 µM (ABCB1 [3]; [7])?
The Papp B→A at 180 min, 250 µM was 16.5 ×10⁻⁶ cm/s.

And the efflux ratio at 180 min, 250 µM (ABCB1 [3]; human, EMHPS 250 µM, Caco-2 monolayer, M ± SD, read-out: ER (Papp b-a/Papp a-b))?
The efflux ratio at 180 min, 250 µM was 0.75 ± 0.26.

What about the efflux ratio at 180 min (ABCB1 [3]; human, all concentrations (10, 100, and 250 µM), Caco-2 monolayer, read-out: ER (Papp b-a/Papp a-b)) of the same compound?
Its efflux ratio at 180 min is about 1.
